This is an account of results in PMC7956643, “Synthesis of Novel Pyrido[1,2-c]pyrimidine Derivatives with 6-Fluoro-3-(4-piperidynyl)-1,2-benzisoxazole Moiety as Potential SSRI and 5-HT1A Receptor Ligands” (International Journal of Molecular Sciences, 2021).

The term Ki denotes a measure of affinity in units of concentration, obtained from inhibition or displacement. A low value points to tighter binding. For orientation: melting point means the temperature of the solid-liquid transition.

Marks after values point to notes of the source that are not given here.

Data set [1] concerns the target T1, D2 receptors (Homo sapiens, UniProt P14416).
T1 construct: expressed in transfected cells
The data set can be described thus: D2 radioligand binding assay. Particulars: [3H]-raclopride; HEK293 cells, human receptor. As for the experimental part:
(§1) In vitro radioligand binding assays for 5-HT2A, 5-HT6, 5-HT7 and D2 receptors were carried out using methods published by Zajdel et al.. For the assays, HEK293 cell cultures stably expressing the investigated human receptors were used. Cell pellets were thawed and homogenized in 20 vol of assay buffer using an Ultra Turrax tissue homogenizer, then centrifuged twice at 35000 g for 20 min at 4 °C, with incubation for 15 min at 37 °C in between. The composition of the assay buffers was as follows: for 5-HT2A receptors—50 mM Tris-HCl, 0.1 mM EDTA, 4 mM MgCl2 and 0.1% ascorbate; for 5-HT6 receptors—50 mM Tris-HCl, 0.5 mM EDTA, 4 mM MgCl2; for 5-HT7 receptors—50 mM Tris-HCl, 4 mM MgCl2, 10 µM pargyline and 0.1% ascorbate; for D2 receptors—50 mM Tris-HCl, 1 mM EDTA, 4 mM MgCl2, 120 mM NaCl, 5 mM KCl, 1.5 mM CaCl2 and 0.1% ascorbate. All assays were incubated in total volume of 200 mL in 96-well microtitre plates for 1 h at 37 °C, except for 5-HT2A receptors which were incubated at room temperature for 1.5 h. The process of equilibration was terminated by rapid filtration through Unifilter plates with a 96-well cell harvester, and radioactivity retained on the filters was quantified on a Microbeta plate reader (PerkinElmer, USA). For displacement studies, the assay samples contained as radioligands (PerkinElmer): 2 nM [^3H]-ketanserin (spec. act. 53.4 Ci/mmol) for 5-HT2A receptors; 2 nM [^3H]-LSD (spec. act. 83.6 Ci/mmol) for 5-HT6 receptors; 0.6 nM [^3H]-5-CT (spec. act. 39.2 Ci/mmol) for 5-HT7 receptors and [^3H]-raclopride (spec. act. 76.0 Ci/mmol) for D2 receptors. […] Each compound was tested in triplicate at 7–8 concentrations (10^-11-10^-4 M). The inhibition constants (Ki) were calculated from the Cheng–Prusoff equation [46]. Results were expressed as means of at least two separate experiments.

For data set [2], the target named is T2, 5-HT6 receptors (Homo sapiens, UniProt P50406).
T2 construct: expressed in transfected cells
T2 sequence (P50406 whole entry): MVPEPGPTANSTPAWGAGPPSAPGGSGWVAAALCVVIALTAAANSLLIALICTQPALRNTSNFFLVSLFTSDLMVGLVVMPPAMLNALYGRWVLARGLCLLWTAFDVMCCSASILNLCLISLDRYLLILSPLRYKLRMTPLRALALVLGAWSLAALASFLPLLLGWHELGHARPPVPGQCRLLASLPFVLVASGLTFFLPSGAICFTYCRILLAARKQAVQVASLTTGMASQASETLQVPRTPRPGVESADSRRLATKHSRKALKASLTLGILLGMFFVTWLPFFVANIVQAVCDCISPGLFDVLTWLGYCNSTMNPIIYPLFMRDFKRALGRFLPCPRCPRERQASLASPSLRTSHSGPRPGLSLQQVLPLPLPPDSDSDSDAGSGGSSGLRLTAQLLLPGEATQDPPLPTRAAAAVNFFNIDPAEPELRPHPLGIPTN
The data set can be described thus: 5-HT6 radioligand binding assay. Particulars: [3H]-LSD; HEK293 cells, human receptor. On the procedure:
as §1

In data set [3] the target is T3, 5-HT1A receptor (Mus musculus, UniProt Q64264).
T3 construct: from tissue; host or cells: whole animal, male CD-1 mice
T3 sequence (Q64264 1-421): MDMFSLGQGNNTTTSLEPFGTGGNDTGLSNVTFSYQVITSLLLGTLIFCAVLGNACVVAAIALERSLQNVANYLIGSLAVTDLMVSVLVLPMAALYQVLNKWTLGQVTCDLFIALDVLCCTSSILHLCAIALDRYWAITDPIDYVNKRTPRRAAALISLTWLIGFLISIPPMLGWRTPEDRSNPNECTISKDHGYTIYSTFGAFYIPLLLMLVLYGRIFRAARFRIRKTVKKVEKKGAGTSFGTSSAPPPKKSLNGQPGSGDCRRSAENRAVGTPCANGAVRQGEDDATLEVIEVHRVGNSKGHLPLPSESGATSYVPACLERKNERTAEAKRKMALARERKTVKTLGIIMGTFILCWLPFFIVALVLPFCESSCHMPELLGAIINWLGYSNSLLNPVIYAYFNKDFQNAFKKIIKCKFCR
The data set can be described thus: Effect of WAY-100635 on the hypothermia induced by tested compounds. It counts as in vivo, CD-1 mice. Particulars: mice. As for the experimental part:
(§2) The experiments were performed on male CD-1 mice (23–40 g). The animals were kept at room temperature (21 ± 2 °C) on a natural day-night cycle (March–October) and housed under standard laboratory conditions. They had free access to food and tap water before the experiment. Each experimental group consisted of 6–8 animals/dose. All the animals were used only once. 8-Hydroxy-2-(di-n-propylamino)tetralin hydro-bromide (8-OH-DPAT, Research Biochemical Inc.) was used as aqueous solution. […] Vehicle group was administered as 10% aqueous solution of dimethyl sulphoxide (DMSO). 8-OH-DPAT was injected subcutaneously (sc); 6a and 7g were given intraperitoneally (ip) in a volume of 10 mL/kg/mice. The obtained data were analyzed by Dunnett’s test (one drug administration) or by the Newman–Keuls test (two drugs administrations). Forced swim test: the obtained data was evaluated by one-way analysis of variance (ANOVA) followed by the Dunnett’s multiple comparisons test: p < 0.05 was considered significant.
(§3) The results were expressed as a change in body temperature (Δt) with respect to the basal body temperature, as measured at the beginning of the experiment.

Data set [4] concerns the target T4, 5-HT7 receptors (Homo sapiens, UniProt P34969).
T4 construct: expressed in transfected cells
The data set can be described thus: 5-HT7 radioligand binding assay. Particulars: [3H]-5-CT; HEK293 cells, human receptor. On the procedure: as §1

Data set [5] concerns the target T3, 5-HT1A receptor. The data set can be described thus: Body temperature in mice (induced hypothermia). The format is in vivo, CD-1 mice. Particulars: mice. As for the experimental part:
as §2, §3

The target in data set [6] is T5, 5-HT2A receptors (Homo sapiens, UniProt P28223).
T5 construct: expressed in transfected cells
T5 sequence (P28223 whole entry): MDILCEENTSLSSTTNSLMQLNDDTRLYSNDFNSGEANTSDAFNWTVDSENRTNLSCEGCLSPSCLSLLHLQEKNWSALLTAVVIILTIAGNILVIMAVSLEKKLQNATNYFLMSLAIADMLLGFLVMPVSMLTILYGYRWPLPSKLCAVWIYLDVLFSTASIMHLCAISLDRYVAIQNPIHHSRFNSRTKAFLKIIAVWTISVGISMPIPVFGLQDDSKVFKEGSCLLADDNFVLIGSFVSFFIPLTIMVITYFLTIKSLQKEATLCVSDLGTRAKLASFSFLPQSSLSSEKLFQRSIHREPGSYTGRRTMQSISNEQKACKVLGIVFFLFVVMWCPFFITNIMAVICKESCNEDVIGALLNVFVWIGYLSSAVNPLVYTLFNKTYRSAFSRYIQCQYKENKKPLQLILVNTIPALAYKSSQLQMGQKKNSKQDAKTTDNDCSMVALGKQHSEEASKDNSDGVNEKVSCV
The data set can be described thus: 5-HT2A radioligand binding assay. Particulars: [3H]-ketanserin; HEK293 cells, human receptor. As for the experimental part:
as §1, with “All assays were incubated in total volume of 200 mL in 96-well microtitre plates for 1 h at 37 °C, except for 5-HT2A receptors which were incubated at room temperature for 1.5 h.” left out

Data set [7] concerns the target T6, SERT protein (Rattus norvegicus, UniProt P31652).
T6 construct: from tissue; host or cells: rat cortex
The data set can be described thus: SERT radioligand binding assay. Particulars: [3H]-citalopram 1.0 nM; rat cortex tissue. On the procedure:
Radioligand binding was performed using rat cortex tissue. All assays were carried out in duplicate. First, 50 µL working solution of the tested compounds, 50 µL [^3H]-citalopram (final concentration 1.0 nM) and 150 µL tissue suspension, prepared in assay buffer (50 mM Tris. pH 7.7; 150 mM NaCl; 5 mM KCl), were transferred to a polypropylene 96-well microplate using 96-wells pipetting station Rainin Liquidator (MettlerToledo). […] The reaction was terminated by rapid filtration through GF/B filter mate presoaked with 0.3% polyethyleneimine for 30 min. Ten rapid washes with 200 µL 50 mM Tris buffer (4 °C, pH 7.7) were performed using an automated harvester system—Harvester-96 MACH III FM (Tomtec). […] Data were fitted to a one-site curve-fitting equation with Prism 6 (GraphPad Software) and Ki values were estimated from the Cheng–Prusoff equation.

Data set [8] has as its target T7, human 5-HT1A receptor (Homo sapiens, UniProt P08908).
T7 construct: purchased PerkinElmer; host or cells: CHO-K1 cells, stably transfected
T7 sequence (P08908 1-422): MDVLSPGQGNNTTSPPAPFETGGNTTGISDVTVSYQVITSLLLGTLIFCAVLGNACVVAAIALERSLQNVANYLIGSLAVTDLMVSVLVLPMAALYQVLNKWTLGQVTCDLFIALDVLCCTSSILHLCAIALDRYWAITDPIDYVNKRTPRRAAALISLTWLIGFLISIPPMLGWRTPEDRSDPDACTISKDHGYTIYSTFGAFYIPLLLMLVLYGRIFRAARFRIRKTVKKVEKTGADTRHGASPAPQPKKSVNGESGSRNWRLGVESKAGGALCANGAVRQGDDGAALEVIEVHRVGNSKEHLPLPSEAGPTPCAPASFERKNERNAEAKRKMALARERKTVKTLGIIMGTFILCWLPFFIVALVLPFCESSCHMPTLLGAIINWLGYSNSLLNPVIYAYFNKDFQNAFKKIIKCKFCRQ
The data set can be described thus: 5-HT1A radioligand binding assay. Particulars: [3H]-8-OH-DPAT 1 nM; membranes from CHO-K1 cells with human 5-HT1A receptor. As for the experimental part: Radioligand binding was performed using membranes from CHO-K1 cells stably transfected with the human 5-HT1A receptor (PerkinElmer, Fremont, CA, USA). All assays were carried out in duplicate. Then, 50 µL working solution of the tested compounds, 50 µL [^3H]-8-OH-DPAT (final concentration 1 nM) and 150 µL diluted membranes (20 µg protein per well) prepared in assay buffer (50 mM Tris, pH 7.4, 10 mM MgSO4, 0.5 mM EDTA, 0.1% ascorbic acid) were transferred to a polypropylene 96-well microplate using 96-wells pipetting station Rainin Liquidator (MettlerToledo, Columbus, OH, USA). […] The reaction was terminated by rapid filtration through GF/B filter mate, presoaked with 0.5% polyethyleneimine for 30 min. Ten rapid washes with 200 µL 50 mM Tris buffer (4 °C, pH 7.4) were performed using an automated harvester system—Harvester-96 MACH III FM (Tomtec, Hamden, CT, USA). […] Data were fitted to a one-site curve-fitting equation with Prism 6 (GraphPad Software, San Diego, CA, USA) and Ki values were estimated from the Cheng–Prusoff equation.

T4 sequence (P34969 whole entry): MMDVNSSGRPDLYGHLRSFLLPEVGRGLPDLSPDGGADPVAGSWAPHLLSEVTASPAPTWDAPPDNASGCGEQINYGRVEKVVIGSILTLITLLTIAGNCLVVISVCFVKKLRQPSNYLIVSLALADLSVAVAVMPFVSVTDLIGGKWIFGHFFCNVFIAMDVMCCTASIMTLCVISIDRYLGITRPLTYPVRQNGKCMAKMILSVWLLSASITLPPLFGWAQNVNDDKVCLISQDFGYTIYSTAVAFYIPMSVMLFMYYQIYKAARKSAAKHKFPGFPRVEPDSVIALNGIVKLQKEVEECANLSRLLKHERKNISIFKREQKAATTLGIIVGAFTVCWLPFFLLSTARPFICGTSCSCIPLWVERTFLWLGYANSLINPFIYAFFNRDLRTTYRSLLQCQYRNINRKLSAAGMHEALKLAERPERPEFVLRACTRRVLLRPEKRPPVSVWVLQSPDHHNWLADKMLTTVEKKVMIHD
T1 sequence (P14416 whole entry): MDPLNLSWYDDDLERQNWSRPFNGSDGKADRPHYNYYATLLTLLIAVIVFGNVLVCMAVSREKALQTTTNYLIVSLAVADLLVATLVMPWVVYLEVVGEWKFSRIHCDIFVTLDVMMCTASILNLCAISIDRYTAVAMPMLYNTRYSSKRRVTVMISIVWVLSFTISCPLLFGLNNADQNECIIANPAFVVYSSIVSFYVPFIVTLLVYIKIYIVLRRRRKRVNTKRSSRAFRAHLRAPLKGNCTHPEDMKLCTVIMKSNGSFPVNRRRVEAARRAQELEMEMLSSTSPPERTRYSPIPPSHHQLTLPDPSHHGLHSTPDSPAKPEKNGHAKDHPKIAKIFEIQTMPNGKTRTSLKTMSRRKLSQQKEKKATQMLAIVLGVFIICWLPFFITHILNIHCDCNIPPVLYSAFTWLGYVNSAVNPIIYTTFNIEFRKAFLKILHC
T6 sequence (P31652 whole entry): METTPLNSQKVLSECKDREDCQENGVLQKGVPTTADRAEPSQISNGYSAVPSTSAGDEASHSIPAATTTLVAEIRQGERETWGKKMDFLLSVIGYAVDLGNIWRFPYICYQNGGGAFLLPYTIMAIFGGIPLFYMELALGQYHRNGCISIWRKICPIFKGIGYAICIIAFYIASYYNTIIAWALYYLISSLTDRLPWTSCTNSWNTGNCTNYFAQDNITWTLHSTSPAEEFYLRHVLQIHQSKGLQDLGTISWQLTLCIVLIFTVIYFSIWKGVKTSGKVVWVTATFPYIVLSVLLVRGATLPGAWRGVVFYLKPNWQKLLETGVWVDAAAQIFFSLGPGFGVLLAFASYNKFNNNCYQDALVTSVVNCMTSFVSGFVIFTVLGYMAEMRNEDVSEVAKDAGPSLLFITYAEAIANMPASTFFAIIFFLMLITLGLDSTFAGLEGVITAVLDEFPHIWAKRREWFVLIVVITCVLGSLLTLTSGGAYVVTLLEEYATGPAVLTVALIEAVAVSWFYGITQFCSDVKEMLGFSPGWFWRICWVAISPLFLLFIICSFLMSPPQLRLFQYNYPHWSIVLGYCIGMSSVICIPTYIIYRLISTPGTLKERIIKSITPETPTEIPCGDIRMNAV

The compound `COc1ccc(-c2c3n(c(=O)n(CCCCN4CCC(c5noc6cc(F)ccc56)CC4)c2=O)CCCC3)cc1` [Compound 7g, 4-(4-Methoxyphenyl)-2-{4-[4-(6-fluoro-1,2-benzoxazol)-1-piperidyl]butyl}-5,6,7,8-tetrahydro-pyrido[1,2-c]pyrimidine-1,3-dione] had a melting point of 108 to 109 °C. In addition, the inhibitory constant (Ki) in [1] was 0.01 ± 0.001 µM. Besides, in [2], the Ki worked out at 0.4 ± 0.032 µM. In [3] (WAY-100635 0.1 mg/kg sc 15 min before compound 1.25 mg/kg, 30 min), the “Δt ± SEM, body temperature” value is −1.2 ± 0.2 ^b °C. Further, in data set [3] (WAY-100635 0.1 mg/kg sc 15 min before compound 1.25 mg/kg, 60 min), the “Δt ± SEM, body temperature” value was −0.7 ± 0.3 ^d °C. Moreover, the “Δt ± SEM, body temperature” value in data set [3] (vehicle + compound 1.25 mg/kg, 30 min) is −1.5 ± 0.3 ^c °C. Besides, in data set [3] (vehicle + compound 1.25 mg/kg, 60 min), the “Δt ± SEM, body temperature” value was −1.7 ± 0.3 ^c °C. The compound also yielded a Ki in [4] of 0.094 ± 0.011 µM. The “Induction of hypothermia in mice” value in data set [5] is “induced hypothermia”. The “Δt ± SEM, body temperature” value in data set [5] (1.25 mg/kg ip, 30 min) was −1.5 ± 0.3 ^b °C. For the same compound, the “Δt ± SEM, body temperature” value in data set [5] (1.25 mg/kg ip, 60 min) was −1.7 ± 0.3 ^b °C. Besides, the “Δt ± SEM, body temperature” value in data set [5] (1.25 mg/kg ip, 90 min) was −1.3 ± 0.4 ^b °C. Moreover, the “Δt ± SEM, body temperature” value in data set [5] (1.25 mg/kg ip, 120 min) is −1.0 ± 0.3 °C. For the same compound, the “Δt ± SEM, body temperature” value in data set [5] (2.5 mg/kg ip, 30 min) is −2.2 ± 0.2 ^b °C. The “Δt ± SEM, body temperature” value in [5] (2.5 mg/kg ip, 60 min) was −2.8 ± 0.3 ^b °C. Moreover, the “Δt ± SEM, body temperature” value in [5] (2.5 mg/kg ip, 90 min) is −2.9 ± 0.3 ^b °C. Besides, the “Δt ± SEM, body temperature” value in data set [5] (2.5 mg/kg ip, 120 min) was −3.0 ± 0.4 ^b °C. In addition, in data set [5] (5 mg/kg ip, 30 min), the “Δt ± SEM, body temperature” value is −2.1 ± 0.1 ^b °C. Besides, the “Δt ± SEM, body temperature” value in data set [5] (5 mg/kg ip, 60 min) is −3.4 ± 0.3 ^b °C. Besides, the “Δt ± SEM, body temperature” value in [5] (5 mg/kg ip, 90 min) is −3.9 ± 0.5 ^b °C. Besides, the “Δt ± SEM, body temperature” value in [5] (5 mg/kg ip, 120 min) is −4.2 ± 0.8 ^b °C.
As to `COc1ccc(-c2c3n(c(=O)n(CCCCN4CCC(c5noc6cc(F)ccc56)CC4)c2=O)CCCC3)cc1` [Compound 7g], the figures for the Ki in data set [6], in data set [7] and in data set [8] were 0.016 ± 0.002 µM, 0.048 ± 0.0024 µM and 0.005 ± 0.0005 µM, respectively.
Compound `O=c1c(-c2ccc(F)cc2)c2n(c(=O)n1CCCCN1CCC(c3noc4cc(F)ccc34)CC1)CCCC2` [Compound 7i, 4-(4-Fluorophenyl)-2-{4-[4-(6-fluoro-1,2-benzoxazol)-1-piperidyl]butyl}-5,6,7,8-tetrahydro-pyrido[1,2-c]pyrimidine-1,3-dione] yielded a melting point of 57 to 60 °C. In data set [1], the Ki was 0.017 ± 0.002 µM. The affinity in [2] corresponds to a Ki of 0.74 ± 0.183 µM. Besides, the affinity in data set [4], expressed as Ki, was 0.161 ± 0.027 µM. For the same compound, the Ki in data set [6] is 0.044 ± 0.006 µM. In data set [7], the Ki was determined as 0.311 ± 0.035 µM. Affinity in [8] was put at a Ki of 0.0095 ± 0.0011 µM.
